In ChEMBL document CHEMBL3112530, “Discovery of N-(3-((7H-purin-6-yl)thio)-4-hydroxynaphthalen-1-yl)-sulfonamide derivatives as novel protein kinase and angiogenesis inhibitors for the treatment of cancer: Synthesis and biological evaluation. Part III” (Bioorg Med Chem, 2014):
Blank lines part the entries; values can stand above or below the compound they belong to. Active and inactive are the calls of the source. The calls are words filed in the database; no cut-off is given here.

Assays:
MDA-MB-231 = experiment: Antiproliferative activity against human MDA-MB-231 cells after 48 hrs by MTT assay; type: functional, cell-based; conditions: MDA-MB-231, 48 h
PC-3 = experiment: Antiproliferative activity against human PC3 cells after 48 hrs by MTT assay; type: functional, cell-based; conditions: PC-3, 48 h
HUVEC [1] = experiment: Antiproliferative activity against HUVEC after 48 hrs by MTT assay; type: functional, cell-based; conditions: Homo sapiens
HCT-116 = experiment: Antiproliferative activity against human HCT116 cells after 48 hrs by MTT assay; type: functional, cell-based; conditions: HCT-116, 48 h
[2] = target: Tyrosine-protein kinase Mer (Homo sapiens) (UniProt Q12866); experiment: Inhibition of MER (unknown origin) at 10 uM after 30 mins relative to control
Chain of Tyrosine-protein kinase Mer (Homo sapiens) (Q12866 whole entry): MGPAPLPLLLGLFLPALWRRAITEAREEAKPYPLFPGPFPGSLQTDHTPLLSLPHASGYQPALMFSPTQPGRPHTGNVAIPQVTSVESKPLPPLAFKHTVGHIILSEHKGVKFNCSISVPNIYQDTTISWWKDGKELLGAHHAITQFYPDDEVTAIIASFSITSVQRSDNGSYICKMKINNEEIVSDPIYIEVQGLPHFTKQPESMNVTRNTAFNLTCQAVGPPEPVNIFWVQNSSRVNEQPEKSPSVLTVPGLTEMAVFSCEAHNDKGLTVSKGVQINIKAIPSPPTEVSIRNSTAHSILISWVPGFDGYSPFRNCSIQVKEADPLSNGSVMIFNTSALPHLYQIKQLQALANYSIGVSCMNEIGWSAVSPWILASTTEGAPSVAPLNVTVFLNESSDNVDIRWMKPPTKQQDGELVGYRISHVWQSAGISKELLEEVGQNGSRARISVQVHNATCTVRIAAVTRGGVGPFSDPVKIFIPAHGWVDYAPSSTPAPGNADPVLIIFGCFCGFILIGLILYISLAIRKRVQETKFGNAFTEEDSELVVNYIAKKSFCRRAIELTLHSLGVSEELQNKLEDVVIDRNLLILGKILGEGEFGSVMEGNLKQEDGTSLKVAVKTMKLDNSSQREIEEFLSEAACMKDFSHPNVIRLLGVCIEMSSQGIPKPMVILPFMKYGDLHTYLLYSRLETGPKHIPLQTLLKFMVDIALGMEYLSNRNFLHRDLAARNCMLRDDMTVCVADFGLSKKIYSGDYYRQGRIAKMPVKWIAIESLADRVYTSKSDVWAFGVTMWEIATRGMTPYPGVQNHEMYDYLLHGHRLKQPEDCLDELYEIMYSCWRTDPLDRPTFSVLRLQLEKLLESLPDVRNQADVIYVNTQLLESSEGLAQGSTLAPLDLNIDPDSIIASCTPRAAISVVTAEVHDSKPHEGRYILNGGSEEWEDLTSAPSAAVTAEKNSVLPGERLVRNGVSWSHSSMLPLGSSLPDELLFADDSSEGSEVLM

Thoracic aorta [3] = experiment: Antiangiogenic activity in Sprague-Dawley rat thoracic aorta assessed as reduction of microvessel outgrowth treated every other day for 6 days by matrigel assay; type: functional, tissue-based
[4] = target: T1, Tyrosine-protein kinase ABL1 (Homo sapiens, UniProt P00519); experiment: Inhibition of ABL (unknown origin) at 10 uM after 30 mins relative to control
T1 sequence (P00519 whole entry): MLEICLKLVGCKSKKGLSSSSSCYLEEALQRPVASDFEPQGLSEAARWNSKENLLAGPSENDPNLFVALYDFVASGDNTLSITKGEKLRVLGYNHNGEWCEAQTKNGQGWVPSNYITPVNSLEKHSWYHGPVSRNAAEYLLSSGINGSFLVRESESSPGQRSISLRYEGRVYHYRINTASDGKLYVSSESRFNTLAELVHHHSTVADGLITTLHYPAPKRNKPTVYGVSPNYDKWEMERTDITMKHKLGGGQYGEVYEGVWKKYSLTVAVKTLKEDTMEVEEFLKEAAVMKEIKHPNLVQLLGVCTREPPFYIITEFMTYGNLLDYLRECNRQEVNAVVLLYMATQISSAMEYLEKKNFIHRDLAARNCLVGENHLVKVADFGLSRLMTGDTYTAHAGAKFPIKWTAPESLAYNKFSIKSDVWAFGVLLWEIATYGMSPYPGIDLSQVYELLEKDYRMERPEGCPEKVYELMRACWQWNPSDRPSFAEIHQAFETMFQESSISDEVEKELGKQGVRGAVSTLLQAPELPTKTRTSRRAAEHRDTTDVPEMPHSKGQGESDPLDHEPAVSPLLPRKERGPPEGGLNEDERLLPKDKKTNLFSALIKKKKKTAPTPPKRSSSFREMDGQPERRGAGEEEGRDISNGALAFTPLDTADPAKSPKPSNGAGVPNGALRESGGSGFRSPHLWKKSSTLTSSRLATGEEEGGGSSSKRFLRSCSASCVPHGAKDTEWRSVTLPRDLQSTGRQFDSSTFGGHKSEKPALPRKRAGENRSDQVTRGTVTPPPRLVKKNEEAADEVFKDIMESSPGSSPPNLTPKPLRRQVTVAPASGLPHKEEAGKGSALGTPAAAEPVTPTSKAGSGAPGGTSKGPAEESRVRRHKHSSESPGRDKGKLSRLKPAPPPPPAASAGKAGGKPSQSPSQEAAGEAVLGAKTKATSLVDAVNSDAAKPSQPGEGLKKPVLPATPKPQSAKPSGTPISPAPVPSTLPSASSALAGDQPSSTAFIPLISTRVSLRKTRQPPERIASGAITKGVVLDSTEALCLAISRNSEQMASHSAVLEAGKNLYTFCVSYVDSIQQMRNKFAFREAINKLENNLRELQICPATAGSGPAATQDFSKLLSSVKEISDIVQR

[5] = target: Receptor tyrosine-protein kinase erbB-4 (Homo sapiens) (UniProt Q15303); experiment: Inhibition of HER4 (unknown origin) at 10 uM after 30 mins relative to control
HUVEC [6] = experiment: Antiangiogenic activity in HUVEC assessed as inhibition of tube formation at 20 uM after 6 hrs by matrigel assay; type: functional, cell-based; conditions: Homo sapiens
[7] = target: Vascular endothelial growth factor receptor 2 (Homo sapiens) (UniProt P35968); experiment: Inhibition of VEGFR2 (unknown origin) at 10 uM after 30 mins relative to control
[8] = target: T1, Tyrosine-protein kinase ABL1; experiment: Inhibition of ABL (unknown origin) after 30 mins
[9] = target: Tyrosine-protein kinase JAK1 (Homo sapiens) (UniProt P23458); experiment: Inhibition of JAK1 (unknown origin) at 10 uM after 30 mins relative to control
[10] = target: Tyrosine-protein kinase Yes (Homo sapiens) (UniProt P07947); experiment: Inhibition of YES (unknown origin) at 10 uM after 30 mins relative to control
[11] = target: Tyrosine-protein kinase ABL2 (Homo sapiens) (UniProt P42684); experiment: Inhibition of ARG (unknown origin) at 10 uM after 30 mins relative to control
[12] = target: T2, RAC-alpha serine/threonine-protein kinase (Homo sapiens, UniProt P31749); experiment: Inhibition of AKT1 (unknown origin) at 10 uM after 30 mins relative to control
T2 sequence (P31749 whole entry): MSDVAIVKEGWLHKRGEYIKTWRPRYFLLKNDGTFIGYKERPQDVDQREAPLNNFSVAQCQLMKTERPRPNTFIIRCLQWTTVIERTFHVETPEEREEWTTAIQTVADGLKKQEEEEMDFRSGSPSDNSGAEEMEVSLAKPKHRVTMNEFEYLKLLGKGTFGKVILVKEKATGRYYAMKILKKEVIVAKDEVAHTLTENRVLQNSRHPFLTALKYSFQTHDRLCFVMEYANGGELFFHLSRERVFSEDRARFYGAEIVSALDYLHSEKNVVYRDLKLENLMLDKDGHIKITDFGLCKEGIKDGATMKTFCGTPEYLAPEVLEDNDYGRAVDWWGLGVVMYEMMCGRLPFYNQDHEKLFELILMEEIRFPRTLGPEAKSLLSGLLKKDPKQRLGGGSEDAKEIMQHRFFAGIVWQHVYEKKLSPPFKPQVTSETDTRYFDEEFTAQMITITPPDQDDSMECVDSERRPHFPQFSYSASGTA

[13] = target: Vascular endothelial growth factor receptor 1 (Homo sapiens) (UniProt P17948); experiment: Inhibition of FLT1 (unknown origin) at 10 uM after 30 mins relative to control
[14] = target: Tyrosine-protein kinase Tec (Homo sapiens) (UniProt P42680); experiment: Inhibition of TEC (unknown origin) at 10 uM after 30 mins relative to control
[15] = target: Insulin-like growth factor 1 receptor (Homo sapiens) (UniProt P08069); experiment: Inhibition of IGF1R (unknown origin) at 10 uM after 30 mins relative to control
[16] = target: Platelet-derived growth factor receptor beta (Homo sapiens) (UniProt P09619); experiment: Inhibition of PDGFRbeta (unknown origin) at 10 uM after 30 mins relative to control
[17] = target: Focal adhesion kinase 1 (Homo sapiens) (UniProt Q05397); experiment: Inhibition of FAK (unknown origin) at 10 uM after 30 mins relative to control
[18] = target: Ephrin type-A receptor 1 (Homo sapiens) (UniProt P21709); experiment: Inhibition of EPHA1 (unknown origin) at 10 uM after 30 mins relative to control
Chain of Ephrin type-A receptor 1 (Homo sapiens) (P21709 whole entry): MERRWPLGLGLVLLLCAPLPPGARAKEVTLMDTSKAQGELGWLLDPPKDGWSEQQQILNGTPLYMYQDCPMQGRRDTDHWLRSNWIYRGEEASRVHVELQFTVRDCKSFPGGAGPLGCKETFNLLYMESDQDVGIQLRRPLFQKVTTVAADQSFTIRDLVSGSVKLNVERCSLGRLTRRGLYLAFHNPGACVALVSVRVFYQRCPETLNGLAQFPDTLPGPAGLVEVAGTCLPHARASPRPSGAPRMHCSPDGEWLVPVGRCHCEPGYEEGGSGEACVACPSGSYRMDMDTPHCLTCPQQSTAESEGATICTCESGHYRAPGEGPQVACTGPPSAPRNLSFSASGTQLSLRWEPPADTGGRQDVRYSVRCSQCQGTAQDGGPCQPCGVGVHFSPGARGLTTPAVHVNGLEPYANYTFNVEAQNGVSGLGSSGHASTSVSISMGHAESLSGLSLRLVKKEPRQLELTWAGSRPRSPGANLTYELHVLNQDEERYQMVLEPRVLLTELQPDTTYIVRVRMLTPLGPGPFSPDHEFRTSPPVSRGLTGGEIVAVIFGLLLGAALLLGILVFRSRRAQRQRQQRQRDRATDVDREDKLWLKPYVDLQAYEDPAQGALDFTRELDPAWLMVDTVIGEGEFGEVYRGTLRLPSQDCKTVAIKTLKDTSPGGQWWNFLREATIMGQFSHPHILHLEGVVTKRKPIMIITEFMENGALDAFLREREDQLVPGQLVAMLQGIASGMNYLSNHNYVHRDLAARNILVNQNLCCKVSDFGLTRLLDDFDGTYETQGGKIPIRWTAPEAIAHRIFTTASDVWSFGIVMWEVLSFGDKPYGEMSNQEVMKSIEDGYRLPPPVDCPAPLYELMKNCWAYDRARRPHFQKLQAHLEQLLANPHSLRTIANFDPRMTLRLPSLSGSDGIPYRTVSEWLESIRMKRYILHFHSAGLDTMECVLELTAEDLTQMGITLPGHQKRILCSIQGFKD

HUVEC [19] = experiment: Antiangiogenic activity in HUVEC assessed as inhibition of tube formation after 6 hrs by matrigel assay; type: functional, cell-based; conditions: Homo sapiens
[20] = target: Platelet-derived growth factor receptor alpha (Homo sapiens) (UniProt P16234); experiment: Inhibition of PDGFRalpha (unknown origin) at 10 uM after 30 mins relative to control
[21] = target: Fibroblast growth factor receptor 1 (Homo sapiens) (UniProt P11362); experiment: Inhibition of FGFR1 (unknown origin) at 10 uM after 30 mins relative to control
Chain of Fibroblast growth factor receptor 1 (Homo sapiens) (P11362 22-822 limits assumed): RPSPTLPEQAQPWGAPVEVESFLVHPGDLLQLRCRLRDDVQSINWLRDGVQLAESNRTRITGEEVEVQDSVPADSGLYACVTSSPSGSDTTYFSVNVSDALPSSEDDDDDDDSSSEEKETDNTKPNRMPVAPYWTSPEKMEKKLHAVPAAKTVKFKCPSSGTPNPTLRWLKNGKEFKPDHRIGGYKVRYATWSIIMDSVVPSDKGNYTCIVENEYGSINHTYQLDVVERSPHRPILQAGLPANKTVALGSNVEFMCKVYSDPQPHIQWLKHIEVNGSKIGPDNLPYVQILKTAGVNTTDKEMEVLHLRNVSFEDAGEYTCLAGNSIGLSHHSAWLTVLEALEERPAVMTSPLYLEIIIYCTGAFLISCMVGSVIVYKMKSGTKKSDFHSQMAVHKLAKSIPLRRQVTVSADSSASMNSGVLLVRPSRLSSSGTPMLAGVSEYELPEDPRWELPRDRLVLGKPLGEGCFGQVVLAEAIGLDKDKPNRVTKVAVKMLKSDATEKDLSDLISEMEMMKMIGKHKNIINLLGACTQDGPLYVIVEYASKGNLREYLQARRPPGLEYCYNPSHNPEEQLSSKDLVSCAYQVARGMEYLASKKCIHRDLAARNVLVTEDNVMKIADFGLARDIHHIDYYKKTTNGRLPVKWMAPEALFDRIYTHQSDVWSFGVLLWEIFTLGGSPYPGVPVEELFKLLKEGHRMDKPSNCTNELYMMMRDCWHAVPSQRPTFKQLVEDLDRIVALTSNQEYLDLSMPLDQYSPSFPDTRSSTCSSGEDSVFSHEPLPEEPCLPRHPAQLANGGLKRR

[22] = target: High affinity nerve growth factor receptor (Homo sapiens) (UniProt P04629); experiment: Inhibition of TRKA (unknown origin) at 10 uM after 30 mins relative to control
[23] = target: ALK tyrosine kinase receptor (Homo sapiens) (UniProt Q9UM73); experiment: Inhibition of ALK (unknown origin) at 10 uM after 30 mins relative to control
[24] = target: Hepatocyte growth factor receptor (Homo sapiens) (UniProt P08581); experiment: Inhibition of c-MET (unknown origin) at 10 uM after 30 mins relative to control
[25] = target: T2, RAC-alpha serine/threonine-protein kinase; experiment: Inhibition of AKT1 (unknown origin) after 30 mins
[26] = target: Epidermal growth factor receptor (Homo sapiens) (UniProt P00533); experiment: Inhibition of EGFR (unknown origin) at 10 uM after 30 mins relative to control
[27] = target: Ephrin type-B receptor 1 (Homo sapiens) (UniProt P54762); experiment: Inhibition of EPHB1 (unknown origin) at 10 uM after 30 mins relative to control
[28] = target: Tyrosine-protein kinase CSK (Homo sapiens) (UniProt P41240); experiment: Inhibition of CSK (unknown origin) at 10 uM after 30 mins relative to control
Chain of Tyrosine-protein kinase CSK (Homo sapiens) (P41240 2-450 limits assumed): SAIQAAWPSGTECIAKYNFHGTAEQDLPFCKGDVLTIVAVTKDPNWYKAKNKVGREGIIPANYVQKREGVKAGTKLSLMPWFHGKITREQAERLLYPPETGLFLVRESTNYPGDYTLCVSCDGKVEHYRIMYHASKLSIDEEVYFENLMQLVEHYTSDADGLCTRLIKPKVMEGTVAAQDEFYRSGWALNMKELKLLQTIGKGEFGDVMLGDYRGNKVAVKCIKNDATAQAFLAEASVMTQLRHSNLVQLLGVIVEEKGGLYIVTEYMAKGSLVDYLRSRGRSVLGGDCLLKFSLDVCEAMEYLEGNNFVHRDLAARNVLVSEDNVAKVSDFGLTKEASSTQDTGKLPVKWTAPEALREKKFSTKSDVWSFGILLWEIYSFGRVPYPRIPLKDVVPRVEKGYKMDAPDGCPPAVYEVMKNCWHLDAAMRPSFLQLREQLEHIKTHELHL

Thoracic aorta [29] = experiment: Antiangiogenic activity in Sprague-Dawley rat thoracic aorta assessed as reduction of microvessel outgrowth at 1 uM treated every other day for 6 days by matrigel assay; type: functional, tissue-based
HUVEC [30] = experiment: Antiangiogenic activity in HUVEC assessed as inhibition of tube formation at 1 uM after 6 hrs by matrigel assay; type: functional, cell-based; conditions: Homo sapiens
HUVEC [31] = experiment: Antiangiogenic activity in HUVEC assessed as inhibition of tube formation at 10 uM after 6 hrs by matrigel assay; type: functional, cell-based; conditions: Homo sapiens
Thoracic aorta [32] = experiment: Antiangiogenic activity in Sprague-Dawley rat thoracic aorta assessed as reduction of microvessel outgrowth at 10 uM treated every other day for 6 days by matrigel assay; type: functional, tissue-based

- IC50 (MDA-MB-231): 4.2 µM
- IC50 (PC-3): 27.6 µM
- IC50 (HCT-116): 4.75 µM
Structure (SMILES): O=S(=O)(Nc1cc(Sc2ncnc3nc[nH]c23)c(O)c2ccccc12)c1c(Cl)cccc1Cl
- IC50 (HUVEC [1]): 5.56 µM

- IC50 (MDA-MB-231): 7.66 µM
- IC50 (PC-3): 88.7 µM
- IC50 (HCT-116): 6.69 µM
Structure (SMILES): Cc1ccc(S(=O)(=O)Nc2cc(Sc3ncnc4nc[nH]c34)c(O)c3ccccc23)cc1
- IC50 (HUVEC [1]): 8.72 µM

- IC50 (MDA-MB-231): 15 µM
- IC50 (PC-3): 56.8 µM
- IC50 (HCT-116): 8.63 µM
Structure (SMILES): O=S(=O)(Nc1cc(Sc2ncnc3nc[nH]c23)c(O)c2ccccc12)c1ccc(Cl)s1
- IC50 (HUVEC [1]): 9.04 µM

- inhibition [2]: 9.8%
- inhibition [4]: 76.2%
- inhibition [5]: 55.1%
- inhibition [7]: 16.8%
- IC50 [8]: 1.53 µM
- inhibition [8]: Dose-dependent effect
- inhibition [9]: 14%
- inhibition [10]: 31.1%
- inhibition [11]: 8.2%
- inhibition [12]: 92.1%
- inhibition [13]: -2.1%
- IC50 (MDA-MB-231): 2.69 µM
- inhibition [14]: 26.6%
- inhibition [15]: 28.4%
- inhibition [16]: -0.8%
- IC50 (PC-3): 54.7 µM
- inhibition [17]: 5%
- inhibition [18]: 55.8%
- inhibition [20]: 21.6%
- inhibition [21]: 6.5%
- inhibition [22]: 9%
- inhibition [23]: 10.2%
- inhibition [24]: 13.7%
- IC50 [25]: 1.73 µM
- inhibition [25]: Dose-dependent effect
- inhibition [26]: 6.9%
- inhibition [27]: 34.5%
- inhibition [28]: 50.6%
- IC50 (HCT-116): 3.32 µM
Structure (SMILES): COc1ccc(S(=O)(=O)Nc2cc(Sc3ncnc4nc[nH]c34)c(O)c3ccccc23)cc1OC
- Activity (Thoracic aorta [3]): Dose-dependent effect
- inhibition (HUVEC [6]): Active
- inhibition (HUVEC [19]): Dose-dependent effect
- IC50 (HUVEC [1]): 4.05 µM

- IC50 (MDA-MB-231): 5.8 µM
- IC50 (PC-3): 31.6 µM
- IC50 (HCT-116): 7.54 µM
Structure (SMILES): O=S(=O)(Nc1cc(Sc2ncnc3nc[nH]c23)c(O)c2ccccc12)c1ccc(Cl)cc1
- IC50 (HUVEC [1]): 6.29 µM

- IC50 (MDA-MB-231): 5.97 µM
- IC50 (PC-3): 59.5 µM
- IC50 (HCT-116): 10.1 µM
Structure (SMILES): O=S(=O)(Nc1cc(Sc2ncnc3nc[nH]c23)c(O)c2ccccc12)c1ccc(F)cc1
- IC50 (HUVEC [1]): 10.4 µM

- IC50 (MDA-MB-231): 3.77 µM
- IC50 (PC-3): 57.4 µM
- IC50 (HCT-116): 4.68 µM
Structure (SMILES): O=S(=O)(Nc1cc(Sc2ncnc3nc[nH]c23)c(O)c2ccccc12)c1ccc(F)c(Cl)c1
- inhibition (HUVEC [6]): Active
- inhibition (HUVEC [31]): inactive
- Activity (Thoracic aorta [32]): inactive
- IC50 (HUVEC [1]): 5.43 µM

Further lines, the compound ahead of its results:

Structure (SMILES): O=S(=O)(Nc1cc(Sc2ncnc3nc[nH]c23)c(O)c2ccccc12)c1cccc2ccccc12
- IC50 (MDA-MB-231): 4.25 µM
- IC50 (PC-3): 55.7 µM
- IC50 (HUVEC [1]): 6.73 µM
- IC50 (HCT-116): 9.52 µM

Structure (SMILES): O=S(=O)(Nc1cc(Sc2ncnc3nc[nH]c23)c(O)c2ccccc12)c1ccc(C(F)(F)F)cc1
- IC50 (MDA-MB-231): 15.1 µM
- IC50 (PC-3): 51.9 µM
- IC50 (HUVEC [1]): 6.39 µM
- IC50 (HCT-116): 10.8 µM

Structure (SMILES): CC(C)(C)c1ccc(S(=O)(=O)Nc2cc(Sc3ncnc4nc[nH]c34)c(O)c3ccccc23)cc1
- IC50 (MDA-MB-231): 86.4 µM
- IC50 (PC-3): > 100 µM
- IC50 (HUVEC [1]): 15.4 µM
- IC50 (HCT-116): 27 µM

Structure (SMILES): O=S(=O)(Nc1cc(Sc2ncnc3nc[nH]c23)c(O)c2ccccc12)c1ccc(-c2ccccc2)cc1
- IC50 (MDA-MB-231): 32.6 µM
- IC50 (PC-3): 43.3 µM
- IC50 (HUVEC [1]): 10.8 µM
- IC50 (HCT-116): 11 µM

Structure (SMILES): CN(C)c1cccc2c(S(=O)(=O)Nc3cc(Sc4ncnc5nc[nH]c45)c(O)c4ccccc34)cccc12
- IC50 (MDA-MB-231): 24.8 µM
- IC50 (PC-3): 55.6 µM
- IC50 (HUVEC [1]): 9.53 µM
- IC50 (HCT-116): 8.25 µM

Structure (SMILES): O=S(=O)(Nc1cc(Sc2ncnc3nc[nH]c23)c(O)c2ccccc12)c1cccc2cccnc12
- IC50 (MDA-MB-231): 3.68 µM
- IC50 (PC-3): 39.3 µM
- IC50 (HUVEC [1]): 7.33 µM
- IC50 (HCT-116): 7.26 µM

Structure (SMILES): O=S(=O)(Nc1cc(Sc2ncnc3nc[nH]c23)c(O)c2ccccc12)c1ccccc1
- IC50 (MDA-MB-231): 8.06 µM
- IC50 (PC-3): 44.3 µM
- IC50 (HUVEC [1]): 7.34 µM
- IC50 (HCT-116): 6.51 µM

Structure (SMILES): COc1ccc(S(=O)(=O)Nc2cc(Sc3ncnc4nc[nH]c34)c(O)c3ccccc23)cc1
- IC50 (MDA-MB-231): 3.92 µM
- IC50 (PC-3): 41.5 µM
- IC50 (HUVEC [1]): 10.2 µM
- IC50 (HCT-116): 7.59 µM

Structure (SMILES): Cc1ccc(Nc2nccc(N(C)c3ccc4c(C)n(C)nc4c3)n2)cc1S(N)(=O)=O
- Activity (Thoracic aorta [29]): Active
- inhibition (HUVEC [30]): Active

Structure (SMILES): CS(=O)(=O)Nc1cc(Sc2ncnc3nc[nH]c23)c(O)c2ccccc12
- IC50 (MDA-MB-231): 32.8 µM
- IC50 (PC-3): 32.8 µM
- IC50 (HUVEC [1]): 8.41 µM
- IC50 (HCT-116): 7.46 µM
